Measurements taken from the supplement of paper PMC4862054.

Experiments:
Settings in all cases: 72 h
[1] = tested on: CAL-51
In short: (§1)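 In this assay, breast cancer cell lines spent 72 h with compound at 5 concentrations in 10-fold steps over a compound-specific 10,000-fold range. The first readout was cell death by CellTox Green fluorescence, and the second was viability by CellTiter-Glo luminescence, each normalised per plate to 0.1 % DMSO and a positive kill control. EC50 came from the dose-response curves, censored at the top concentration.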

[2] = tested on: BT-474
In short: as §1

[3] = tested on: CAL-120
In short: as §1

[4] = tested on: CAL-148
In short: as §1

[5] = tested on: HCC1143
In short: as §1

[6] = tested on: MCF-10A
In short: as §1

[7] = tested on: MDA-MB-231
In short: as §1

[8] = tested on: MDA-MB-436
In short: as §1

[9] = tested on: MDA-MB-468
In short: as §1

[10] = tested on: MFM-223
In short: as §1

[11] = tested on: CAL-148; remark: listed apart in the source
In short: (§2)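 Breast cancer cell lines in 20 µl suspension were seeded onto 384-well plates pre-loaded with compound dissolved in 5 µl medium, then incubated 72 h. For viability, 2.5 µl CellTiter-Blue was added for 2 h at 37 °C and fluorescence read at 560/590 nm. Each plate was normalised to vehicle and a positive kill control and checked by Z'-factor. EC50 comes from the fitted percent-inhibition dose-response curve, censored at the highest concentration; rows with zero drug sensitivity score were dropped.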

[12] = tested on: CAL-51; remark: listed apart in the source
In short: as §2

[13] = tested on: DU-4475
In short: as §2

[14] = tested on: HDQ-P1
In short: as §2

[15] = tested on: CAL-120; remark: listed apart in the source
In short: as §2

[16] = tested on: Hs578T
In short: as §2

[17] = tested on: MDA-MB-436; remark: listed apart in the source
In short: as §2

[18] = tested on: MFM-223; remark: listed apart in the source
In short: as §2

[19] = tested on: SK-BR-3
In short: as §2

[20] = tested on: CAL-148; remark: listed apart in the source
Description: (§3)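 Drug sensitivity and resistance testing (DSRT) of breast cancer cell lines in 384-well plates, 5 concentrations in 10-fold dilutions over a compound-specific 10,000-fold range. After 72 h, cytotoxicity was read by CellTox Green fluorescence and viability by CellTiter-Glo luminescence (multiplexed), normalised to DMSO and benzethonium chloride controls. EC50 is the inflection point of the fitted dose-response curve (bottom asymptote free, so it can be relative for partial curves) and is censored at the highest tested concentration. Rows with DSS 0 (no meaningful response) were excluded.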

[21] = tested on: HCC1143; remark: listed apart in the source
Description: as §3

[22] = tested on: MDA-MB-231; remark: listed apart in the source
Description: as §3

[23] = tested on: MDA-MB-468; remark: listed apart in the source
Description: as §3

[24] = tested on: BT-549
In short: as §1

[25] = tested on: CAL-85-1
In short: as §1

[26] = tested on: DU-4475; remark: listed apart in the source
In short: as §1

[27] = tested on: HCC1937
In short: as §1

[28] = tested on: HDQ-P1; remark: listed apart in the source
In short: as §1

[29] = tested on: Hs578T; remark: listed apart in the source
In short: as §1

[30] = tested on: MDA-MB-453
In short: as §1

[31] = tested on: SK-BR-3; remark: listed apart in the source
In short: as §1

[32] = tested on: BT-474; remark: listed apart in the source
Description: as §3

[33] = tested on: HDQ-P1; remark: listed apart in the source
Description: as §3

[34] = tested on: MFM-223; remark: listed apart in the source
Description: as §3

[35] = tested on: HCC1937; remark: listed apart in the source
In short: as §2

[36] = tested on: CAL-85-1; remark: listed apart in the source
Description: as §3

[37] = tested on: MCF-10A; remark: listed apart in the source
Description: as §3

SMILES | EC50, CellTiter-Glo [2] [µM] | EC50, CellTiter-Glo [5] [nM] | EC50, CellTiter-Glo [7] [nM] | EC50, CellTiter-Glo [8] [µM] | EC50, CellTiter-Glo [9] [nM] | EC50, CellTiter-Blue viability [17] [nM] | EC50, CellTiter-Blue viability [19] [nM] | EC50, CellTiter-Glo [24] [nM] | EC50, CellTiter-Glo [27] [nM] | EC50, CellTiter-Glo [30] [nM] | EC50, CellTiter-Glo [31] [nM] | EC50, CellTiter-Blue viability [35] [µM] | EC50, CellTiter-Glo [1] [nM] | EC50, CellTiter-Glo [3] [nM] | EC50, CellTiter-Glo [4] [nM] | EC50, CellTiter-Glo [6] [nM] | EC50, CellTiter-Glo [10] [nM] | EC50, CellTiter-Blue viability [11] [nM] | EC50, CellTiter-Blue viability [12] [nM] | EC50, CellTiter-Blue viability [13] [nM] | EC50, CellTiter-Blue viability [14] [nM] | EC50, CellTiter-Blue viability [15] [nM] | EC50, CellTiter-Blue viability [16] [nM] | EC50, CellTiter-Blue viability [18] [nM] | EC50, CellTox Green [20] [nM] | EC50, CellTox Green [21] [nM] | EC50, CellTox Green [22] [µM] | EC50, CellTox Green [23] [nM] | EC50, CellTiter-Glo [25] [µM] | EC50, CellTiter-Glo [26] [µM] | EC50, CellTiter-Glo [28] [nM] | EC50, CellTiter-Glo [29] [nM] | EC50, CellTox Green [32] [µM] | EC50, CellTox Green [33] [nM] | EC50, CellTox Green [34] [nM] | EC50, CellTox Green [36] [nM] | EC50, CellTox Green [37] [µM]
CC(C)C(=O)Nc1ccc([N+](=O)[O-])c(C(F)(F)F)c1 [Flutamide] |  |  |  |  |  |  |  |  |  |  |  |  | > 10000 |  |  |  |  |  |  |  |  |  |  |  |  |  |  |  |  |  |  |  |  |  |  |  | 
COc1cc2c(Oc3ccc(NC(=O)C4(C(=O)Nc5ccc(F)cc5)CC4)cc3F)ccnc2cc1OCCCN1CCOCC1 [Foretinib] | 0.145 | 317 | 600 | > 1 | 772 | 13.8 | > 1000 |  |  |  |  |  | 490 | 179 | 610 | 854 | 111 | 675 | 473 | 748 | 157 | 787 | 756 | 62.5 | 712 | 693 | 0.129 | 374 |  |  |  |  |  |  |  |  | 

Further lines, with some results ahead:

EC50, CellTiter-Glo [2] [µM] | EC50, CellTiter-Glo [5] [nM] | EC50, CellTiter-Glo [7] [nM] | EC50, CellTiter-Glo [8] [µM] | EC50, CellTiter-Glo [9] [nM] | EC50, CellTiter-Blue viability [17] [nM] | EC50, CellTiter-Blue viability [19] [nM] | EC50, CellTiter-Glo [24] [nM] | EC50, CellTiter-Glo [27] [nM] | EC50, CellTiter-Glo [30] [nM] | EC50, CellTiter-Glo [31] [nM] | EC50, CellTiter-Blue viability [35] [µM] | SMILES | EC50, CellTiter-Glo [1] [nM] | EC50, CellTiter-Glo [3] [nM] | EC50, CellTiter-Glo [4] [nM] | EC50, CellTiter-Glo [6] [nM] | EC50, CellTiter-Glo [10] [nM] | EC50, CellTiter-Blue viability [11] [nM] | EC50, CellTiter-Blue viability [12] [nM] | EC50, CellTiter-Blue viability [13] [nM] | EC50, CellTiter-Blue viability [14] [nM] | EC50, CellTiter-Blue viability [15] [nM] | EC50, CellTiter-Blue viability [16] [nM] | EC50, CellTiter-Blue viability [18] [nM] | EC50, CellTox Green [20] [nM] | EC50, CellTox Green [21] [nM] | EC50, CellTox Green [22] [µM] | EC50, CellTox Green [23] [nM] | EC50, CellTiter-Glo [25] [µM] | EC50, CellTiter-Glo [26] [µM] | EC50, CellTiter-Glo [28] [nM] | EC50, CellTiter-Glo [29] [nM] | EC50, CellTox Green [32] [µM] | EC50, CellTox Green [33] [nM] | EC50, CellTox Green [34] [nM] | EC50, CellTox Green [36] [nM] | EC50, CellTox Green [37] [µM]
> 10 | 1590 |  | > 10 | 656 |  |  | 600 | 2350 | 783 | 814 |  | CC(C)NC[C@@H](C(=O)N1CCN(c2ncnc3c2[C@H](C)C[C@H]3O)CC1)c1ccc(Cl)cc1 [GDC-0068] | 2780 | 819 | 177 | 1150 | 139 |  |  |  |  |  |  |  | 221 |  |  | 2640 | 6.48 | 2.07 | 271 | 1150 | 5.81 | > 10000 | 1330 |  | 
 |  |  |  |  |  |  | 14000 |  |  |  | 13.4 | NC(=O)NO [Hydroxyurea] | 1290 |  |  |  |  |  |  |  |  |  |  |  |  |  |  |  |  |  |  |  |  |  |  |  | 
6.72 | 1380 | 1310 |  | 3110 |  |  | 673 | 537 | 2190 | 1220 |  | COc1cc2c(cc1-c1c(C)noc1C)ncc1[nH]c(=O)n([C@H](C)c3ccccn3)c12 [I-BET151] | 1380 | 574 |  | 855 | 913 |  |  |  |  |  |  |  |  |  | 8.48 | 3140 | 0.834 | 4.08 | 1340 | 678 |  | 123 |  | 1370 | 6.94
